This is an account of results in PubChem BioAssay (NCI).

Test systems include CAKI-1 renal; EKVX NSCLC; HOP-62 NSCLC; NCI-H23 lung; NCI-H460 lung; OVCAR-3 ovarian; PC-3 prostate; SF-539 CNS; SK-MEL-2 melanoma; SNB-19 CNS.
Common to all, as to test: inhibition of tumour cell growth, NCI panel, 48 h

SMILES strings stand for the structures.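 Results reflect a 48-hour exposure of cells in 96-well plates to compound at five concentrations. GI50 = concentration required for 50% inhibition of growth. TGI: concentration producing complete growth inhibition.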

Consider `NC(=O)c1cc(S(=O)(=O)Nc2nnc(-c3ccccc3)c(-c3ccccc3)n2)c(SCc2ccccc2)cc1Cl`, for which the GI50 is over 100 µM in the test on CAKI-1 renal; over 100 µM in the test with EKVX NSCLC; over 100 µM in the test on HOP-62 NSCLC; over 72.3 µM in the test with NCI-H23 lung; over 46.2 µM in the test with NCI-H460 lung; over 100 µM with OVCAR-3 ovarian. For the same compound, the GI50 was over 62.2 µM with PC-3 prostate, over 44.3 µM with SF-539 CNS, over 43.1 µM with SK-MEL-2 melanoma and over 100 µM in the test on SNB-19 CNS. Moreover, the TGI is over 100 µM with CAKI-1 renal; over 100 µM with EKVX NSCLC; over 100 µM with HOP-62 NSCLC; over 100 µM with NCI-H23 lung; over 83.1 µM with NCI-H460 lung; over 100 µM with OVCAR-3 ovarian. Also, the TGI was over 100 µM with PC-3 prostate, over 63.9 µM with SF-539 CNS, over 60.7 µM in the test with SK-MEL-2 melanoma and over 100 µM with SNB-19 CNS.
For `O=C1NC(=O)/C(=C\c2ccccc2)C2=C1CCCC2`, the GI50 with CAKI-1 renal was 5.63 µM; in the test with EKVX NSCLC, 14.3 µM; in the test with HOP-62 NSCLC it was 7.31 µM; in the test with NCI-H23 lung it was 2.63 µM; in the test with NCI-H460 lung, 16.3 µM; with OVCAR-3 ovarian, 2.71 µM. In addition, the GI50 was 6.36 µM with PC-3 prostate, 11.6 µM in the test with SF-539 CNS, 7.72 µM in the test on SK-MEL-2 melanoma and 10.3 µM in the test on SNB-19 CNS. Further, the TGI in the test on CAKI-1 renal came to 17.3 µM; with EKVX NSCLC, 29.5 µM; in the test with HOP-62 NSCLC it was 25.8 µM; in the test on NCI-H23 lung, 8.33 µM; in the test on NCI-H460 lung, 36 µM; in the test with OVCAR-3 ovarian, 8.17 µM. The TGI in the test on PC-3 prostate worked out at 35.5 µM; with SF-539 CNS it was 24.1 µM; with SK-MEL-2 melanoma, 22.9 µM; with SNB-19 CNS, 22.1 µM.
Turning to `NCCSc1nc(-c2ccccc2)c(-c2ccccc2)o1`, the TGI with CAKI-1 renal, in the test on EKVX NSCLC, in the test with HOP-62 NSCLC, in the test on NCI-H23 lung, with NCI-H460 lung and in the test with OVCAR-3 ovarian was over 100 µM each time. For the same compound, the TGI in the test on PC-3 prostate, with SF-539 CNS, with SK-MEL-2 melanoma and in the test on SNB-19 CNS was over 100 µM in each case.
Consider `NC(=O)OCCn1cc(-c2nc(-c3c[nH]c4ncccc34)cs2)c2ccccc21`, for which the GI50 with CAKI-1 renal is 2.42 µM; in the test with EKVX NSCLC, 1.3 µM; in the test with HOP-62 NSCLC, 1.07 µM; in the test with NCI-H23 lung, 2.02 µM; in the test on NCI-H460 lung it was 2.46 µM; in the test on OVCAR-3 ovarian it was 1.27 µM. Further, the GI50 was 1.87 µM in the test with PC-3 prostate, 1.61 µM in the test on SF-539 CNS, 1.52 µM with SK-MEL-2 melanoma and 2.57 µM with SNB-19 CNS. Also, the TGI in the test on CAKI-1 renal was 8.54 µM; in the test with EKVX NSCLC, 7.68 µM; in the test on HOP-62 NSCLC, 7.87 µM; with NCI-H23 lung it was over 100 µM; with NCI-H460 lung it was 12.5 µM; in the test with OVCAR-3 ovarian, 3.83 µM. In addition, the TGI worked out at 14.6 µM with PC-3 prostate, 4.5 µM with SF-539 CNS, 3.96 µM with SK-MEL-2 melanoma and 43.8 µM with SNB-19 CNS.
With `COc1ccc(-c2coc3c4c(ccc3c2=O)OCO4)cc1OC`, the TGI in the test on CAKI-1 renal, with EKVX NSCLC, in the test with HOP-62 NSCLC, in the test on NCI-H23 lung, in the test with NCI-H460 lung and with OVCAR-3 ovarian was over 100 µM throughout. In addition, the TGI with PC-3 prostate was over 100 µM; in the test on SF-539 CNS, over 100 µM; with SK-MEL-2 melanoma, over 100 µM; with SNB-19 CNS, 82 µM.
Regarding `c1ccc2c(c1)c1c(c3ccccc32)CN2CCCC2C1` (stereo not given), the TGI is over 100 µM in the test on CAKI-1 renal; over 100 µM in the test on EKVX NSCLC; over 31.9 µM in the test with HOP-62 NSCLC; 10.3 µM with NCI-H23 lung; over 100 µM with NCI-H460 lung; 22.9 µM in the test on OVCAR-3 ovarian. Further, the TGI is 13.4 µM in the test on PC-3 prostate, 10.7 µM in the test on SF-539 CNS, 9.1 µM with SK-MEL-2 melanoma and over 22.5 µM in the test with SNB-19 CNS.
As to `COc1ccc(CCNC(=O)c2ccc(NC3=C(Cl)C(=O)N(Cc4ccccc4)C3=O)cc2)cc1OC`, the GI50 with CAKI-1 renal was 3.04 µM; with EKVX NSCLC it was 24.9 µM; in the test on HOP-62 NSCLC it was 45 µM; in the test on NCI-H23 lung, 2.01 µM; in the test with NCI-H460 lung, 32 µM; in the test with OVCAR-3 ovarian, 10.9 µM. Besides, the GI50 was 6.02 µM with PC-3 prostate, 23.9 µM in the test on SF-539 CNS, 16.8 µM with SK-MEL-2 melanoma and 27.5 µM with SNB-19 CNS. Moreover, the TGI in the test with CAKI-1 renal is 9.11 µM; in the test on EKVX NSCLC, over 100 µM; with HOP-62 NSCLC, over 100 µM; in the test on NCI-H23 lung it was 4.46 µM; with NCI-H460 lung, over 100 µM; in the test on OVCAR-3 ovarian, over 100 µM. Further, the TGI is 27.8 µM in the test on PC-3 prostate, 70.5 µM with SF-539 CNS, 54.1 µM in the test on SK-MEL-2 melanoma and over 100 µM with SNB-19 CNS.
For `C1=C\COCc2cc(ccc2OCCN2CCCC2)Nc2nccc(n2)-c2cccc(c2)COC/1`, the GI50 in the test with CAKI-1 renal is 0.971 µM; in the test on EKVX NSCLC, 2.76 µM; with HOP-62 NSCLC, 2.47 µM; in the test with NCI-H23 lung, 2.09 µM; in the test with NCI-H460 lung it was 1.39 µM; in the test with OVCAR-3 ovarian, 2.01 µM. In addition, the GI50 with PC-3 prostate was 1.61 µM; with SF-539 CNS, 3.11 µM; in the test with SK-MEL-2 melanoma, 2.49 µM; in the test on SNB-19 CNS, 2.68 µM. Besides, the TGI in the test with CAKI-1 renal stood at 4.15 µM; in the test with EKVX NSCLC, 7.73 µM; with HOP-62 NSCLC, 6.56 µM; in the test on NCI-H23 lung, 5.79 µM; in the test with NCI-H460 lung it was 5.12 µM; in the test with OVCAR-3 ovarian, 5.57 µM. For the same compound, the TGI in the test with PC-3 prostate is 5.43 µM; with SF-539 CNS, 5.71 µM; in the test on SK-MEL-2 melanoma, 5.51 µM; in the test on SNB-19 CNS it was 7.07 µM.
